Assay results from article PMC8156151 (The European Respiratory Journal, 2021).
Like-named read-outs stand apart in the source and are kept apart here.

Tests used:
Type in all cases: in vivo, human
[1] = Plasma pharmacokinetics, part 2 (IPF patients); details: for Cmin (plasma concentration at 24 h post-dose): BLQ: below limit of quantification (0.5 ng·mL^−1); for half-life / Cmax / concentration at 24 h / AUC(0-inf): human, plasma, inhaled; for concentration at 24 h: read-out: Cmin (plasma concentration at 24 h post-dose)
Procedure: Full plasma PK profiles were conducted on days 1 (first day of dosing) and 14 (last day of dosing). […] Standard noncompartmental methods were applied to derive PK parameters using Phoenix WinNonlin version 6.3 (Certara, Sheffield, UK). […] Drug compartment measurements in BAL alveolar macrophages and fluid were determined as described previously.

BAL cells = test: BAL cell classification and quantification (flow cytometry); details: any dose groups
Procedure: Dickinson, NJ, USA). Data were analysed using FlowJo software (Becton Dickinson, NJ, […]
identify cell populations based on surface marker expression. The antibodies used were Gal-3- […]
Biolegend except Gal-3-FITC which was from Cedarlane. Macrophages were identified as having high side scatter properties and HLA-DR positivity. Gal-3 expression (mean fluorescence intensity, MFI) was determined from the macrophage gate. Macrophage subsets […]
Plasma pharmacodynamic biomarkers
Secreted], CCL18 [pulmonary and activation-regulated chemokine], CCL26 [eotaxin], […]
A disease relevance score was
(supplementary table S2).
BAL cell classification and quantification
CD163 and CD206 expression (supplemental figure S2). […]
following treatment with TD139 in the high dose group.

PAI-1 = test: Plasma biomarker PAI-1; details: for PAI-1 raw data, Mean (SD) / PAI-1 least square means % baseline±SEM: IPF patients
Procedure: (§1) All patients, investigators, sites and study sponsor personnel were blinded to the study group assignments throughout the study. Patients underwent study-specific assessments on days 2, 3, 7, 14 and 15, and a post-study assessment was carried out 26–30 days after the last day of the study period. Assessments included vital signs (supine blood pressure, pulse, oxygen saturation, oral temperature and respiratory rate), spirometry, 12-lead ECG, physical examination, laboratory safety screen (haematology, biochemistry, urinalysis and urinary drugs of abuse screen) and blood sampling for PK measurements. All adverse events and concomitant medications were recorded from the time of the screening visit until the post-study follow-up visit. BAL was performed at day −1 (24 h before the first dose) and at day 14 (2 h after the last dose). The BAL procedure was performed as per international guidelines. Briefly, 240 mL of 0.9% saline at room temperature was instilled in 40 mL aliquots into the right middle lobe and aspirated by suction after each aliquot.
(§2) BAL cells were separated from fluid by centrifugation, and cells were collected, stained with antibodies (supplementary material) and then fixed before analysis using a LSR Fortessa flow cytometer (Becton Dickinson, Franklin Lakes, NJ, USA). Data were analysed using FlowJo software (Tree Star, Ashland, OR, USA). Macrophages were identified as having high side scatter properties and human leukocyte antigen-DR positivity. Gal-3 expression (mean fluorescence intensity) was determined from the macrophage gate (supplementary figures S1 and S2). […] Samples were analysed by magnetic Luminex assay (R&D Systems, Minneapolis, MN, USA) or ELISA.
(§3) For part 2 of the study, placebos were combined from the three dose-specific cohorts into a pooled control group (n=9). For alveolar macrophage Gal-3 expression and the plasma biomarkers, ANCOVA was performed for percentage of baseline ((day 14/day 1)×100). The ANCOVA model included effects for treatment group and baseline (day 1) value. […] An additional analysis including dose as a continuous covariate was also performed. The Pearson correlation coefficient (r) and associated p-value were calculated for percentage of baseline and day 14 values between plasma biomarkers and alveolar macrophage Gal-3 expression. […] The analysis is exploratory and there was no pre-planned adjustment for multiple testing; the study was not powered for this. Alveolar macrophage Gal-3 expression was considered the primary exploratory analysis with the pre-selected biomarkers secondary. A Bonferroni correction for multiple testing of the secondary end-points comparing the 10 mg group with placebo gives a critical value of 0.0063. Data are presented as the difference in least square means with 95% confidence interval and p-value unless otherwise stated. All analyses were performed using SAS version 9.4 (SAS Institute, Cary, NC, USA). […]

CCL18 (PARC) = test: Plasma biomarker CCL18; details: IPF patients
Procedure: as §1, §2, §3

HGF = test: Plasma biomarker HGF; details: for HGF raw data, Mean (SD) / HGF least square means % baseline±SEM: IPF patients
Procedure: as §1, §2, §3

MMP-7 = test: Plasma biomarker MMP-7; details: for MMP-7 raw data, Mean (SD) / MMP-7 least square means % baseline±SEM: IPF patients
Procedure: as §1, §2, §3

Gal-1 = test: Plasma biomarker Gal-1; details: for Galectin-1 raw data, Mean (SD) / Gal-1 least square means % baseline±SEM: IPF patients
Procedure: as §1, §2, §3

IL-1ra = test: Plasma biomarker IL-1ra; details: for IL-1ra raw data, Mean (SD) / IL-1ra least square means % baseline±SEM: IPF patients
Procedure: as §1, §2, §3

[2] = IPF patients, after 14 days of dosing
[3] = 3 mg, IPF patients, Day 1, 3 mg once daily, mean±SD
[4] = 3 mg, IPF patients, Day 14, 3 mg once daily, mean±SD
[5] = 10 mg, IPF patients, Day 1, 10 mg once daily, mean±SD
[6] = 10 mg, IPF patients, Day 14, 10 mg once daily, mean±SD

OC[C@H]1O[C@@H](S[C@@H]2O[C@H](CO)[C@H](O)[C@H](n3cc(-c4cccc(F)c4)nn3)[C@H]2O)[C@H](O)[C@@H](n2cc(-c3cccc(F)c3)nn2)[C@H]1O [TD139]
Cmin (plasma concentration at 24 h post-dose) ([1]; IPF patients, Day 1, 0.3 mg once daily): BLQ | Cmin (plasma concentration at 24 h post-dose) ([1]; IPF patients, Day 14, 0.3 mg once daily): BLQ | accumulation [1, 2]: ~50% | increase in AUC0−inf, 10 mg values [1, 2]: 8 fold | increase in Cmax, 10 mg values [1, 2]: 5 fold | expected accumulation ([1]; from T1/2 of ∼8 h and dosing interval of 24 h): ~14% | half-life ([1]; inhaled or intranasal, overall value, read-out: plasma half-life (T1/2) (converted)): 8 h | Cmax ([1]; 0.3 mg, IPF patients, Day 1, 0.3 mg once daily, mean±SD): 0.55 ± 0.02 ng/mL | Cmax ([1]; 0.3 mg, IPF patients, Day 14, 0.3 mg once daily, mean±SD): 0.86 ± 0.25 ng/mL | concentration at 24 h [1, 3]: 1.06 ± 0.43 ng/mL | concentration at 24 h [1, 4]: 1.48 ± 0.51 ng/mL | AUC(0-inf) [1, 3]: 69 ± 50 ng·h/mL | Cmax [1, 3]: 10.6 ± 11.1 ng/mL | half-life ([1]; 3 mg, IPF patients, Day 1, 3 mg once daily, mean±SD, read-out: T1/2 (converted)): 6.36 ± 2.09 h | AUC(0-inf) [1, 4]: 149 ± 47 ng·h/mL | Cmax [1, 4]: 16.5 ± 8.34 ng/mL | half-life ([1]; 3 mg, IPF patients, Day 14, 3 mg once daily, mean±SD, read-out: T1/2 (converted)): 6.91 ± 1.4 h | concentration at 24 h [1, 5]: 12.9 ± 7.88 ng/mL | concentration at 24 h [1, 6]: 14.7 ± 8.64 ng/mL | AUC(0-inf) [1, 5]: 921 ± 479 ng·h/mL | Cmax [1, 5]: 56.3 ± 19.3 ng/mL | half-life ([1]; 10 mg, IPF patients, Day 1, 10 mg once daily, mean±SD, read-out: T1/2 (converted)): 9.69 ± 1.7 h | AUC(0-inf) [1, 6]: 1150 ± 462 ng·h/mL | Cmax [1, 6]: 82.8 ± 11.8 ng/mL | half-life ([1]; 10 mg, IPF patients, Day 14, 10 mg once daily, mean±SD, read-out: T1/2 (converted)): 8.2 ± 2.26 h | abundance or frequencies of CD4+ or CD8+ T cells, Tregs, NK, NKT, B cells, neutrophils or monocytes in BAL (BAL cells): no change in the abundance or frequencies | PAI-1 difference in least square means % baseline (95% CI) (PAI-1; 10 mg vs placebo, ANCOVA): −151.8 (−265.3– −38.2) % baseline | PAI-1 raw data, Mean (SD) (PAI-1; Day 14, 0.3 mg): 45736.7 (29863.26) pg/ml | PAI-1 raw data, Mean (SD) (PAI-1; Day 14, 3 mg): 45744.4 (44222.1) pg/ml | PAI-1 raw data, Mean (SD) (PAI-1; Day 14, 10 mg): 23122.2 (12659.84) pg/ml | PAI-1 least square means % baseline±SEM (PAI-1; day 14, 0.3 mg once daily): 84.6±48.8 % baseline | PAI-1 least square means % baseline±SEM (PAI-1; day 14, 3 mg once daily): 92.4±44.5 % baseline | PAI-1 least square means % baseline±SEM (PAI-1; day 14, 10 mg once daily): 45.8±43.7 % baseline | CCL18 (PARC) raw data, Mean (SD) (CCL18 (PARC); Day 14, 0.3 mg): 79733.8 (25166.88) pg/ml | CCL18 (PARC) raw data, Mean (SD) (CCL18 (PARC); Day 14, 3 mg): 73022.7 (33487.12) pg/ml | CCL18 (PARC) raw data, Mean (SD) (CCL18 (PARC); Day 14, 10 mg): 53456.8 (11339.99) pg/ml | CCL18 (PARC) least square means % baseline±SEM (CCL18 (PARC); day 14, 0.3 mg once daily): 89.6±11.8 % baseline | CCL18 (PARC) least square means % baseline±SEM (CCL18 (PARC); day 14, 3 mg once daily): 98.9±12.0 % baseline | CCL18 (PARC) least square means % baseline±SEM (CCL18 (PARC); day 14, 10 mg once daily): 74.6±11.8 % baseline | HGF difference in least square means % baseline (95% CI) (HGF; 10 mg vs placebo, ANCOVA): −37.2 (−85.5–11.2) % baseline | HGF raw data, Mean (SD) (HGF; Day 14, 0.3 mg): 109.8 (23.24) pg/ml | HGF raw data, Mean (SD) (HGF; Day 14, 3 mg): 159.1 (110.2) pg/ml | HGF raw data, Mean (SD) (HGF; Day 14, 10 mg): 131.2 (44.47) pg/ml | HGF least square means % baseline±SEM (HGF; day 14, 0.3 mg once daily): 100.3±17.5 % baseline | HGF least square means % baseline±SEM (HGF; day 14, 3 mg once daily): 103.2±16.9 % baseline | HGF least square means % baseline±SEM (HGF; day 14, 10 mg once daily): 73.2±18.8 % baseline | MMP-7 difference in least square means % baseline (95% CI) (MMP-7; 10 mg vs placebo, ANCOVA): −82.0 (−237.9–73.9) % baseline | MMP-7 raw data, Mean (SD) (MMP-7; Day 14, 0.3 mg): 447.6 (205.21) pg/ml | MMP-7 raw data, Mean (SD) (MMP-7; Day 14, 3 mg): 1849.2 (2244.12) pg/ml | MMP-7 raw data, Mean (SD) (MMP-7; Day 14, 10 mg): 1130.6 (939.62) pg/ml | MMP-7 least square means % baseline±SEM (MMP-7; day 14, 0.3 mg once daily): 79.3±59.2 % baseline | MMP-7 least square means % baseline±SEM (MMP-7; day 14, 3 mg once daily): 82.3±58.4 % baseline | MMP-7 least square means % baseline±SEM (MMP-7; day 14, 10 mg once daily): 84.4±58.7 % baseline | Gal-1 difference in least square means % baseline (95% CI) (Gal-1; 10 mg vs placebo, ANCOVA): −16.6 (−60.0–26.7) % baseline | Galectin-1 raw data, Mean (SD) (Gal-1; Day 14, 0.3 mg): 41996.4 (7357.87) pg/ml | Galectin-1 raw data, Mean (SD) (Gal-1; Day 14, 3 mg): 60416.7 (17348.65) pg/ml | Galectin-1 raw data, Mean (SD) (Gal-1; Day 14, 10 mg): 48409.7 (21339.06) pg/ml | Gal-1 least square means % baseline±SEM (Gal-1; day 14, 0.3 mg once daily): 93.1±16.7 % baseline | Gal-1 least square means % baseline±SEM (Gal-1; day 14, 3 mg once daily): 120.2±16.6 % baseline | Gal-1 least square means % baseline±SEM (Gal-1; day 14, 10 mg once daily): 89.7±16.6 % baseline | IL-1ra difference in least square means % baseline (95% CI) (IL-1ra; 10 mg vs placebo, ANCOVA): 6.0 (−47.5–59.4) % baseline | IL-1ra raw data, Mean (SD) (IL-1ra; Day 14, 0.3 mg): 548.3 (279.69) pg/ml | IL-1ra raw data, Mean (SD) (IL-1ra; Day 14, 3 mg): 709.8 (338.05) pg/ml | IL-1ra raw data, Mean (SD) (IL-1ra; Day 14, 10 mg): 1992.9 (2627.15) pg/ml | IL-1ra least square means % baseline±SEM (IL-1ra; day 14, 0.3 mg once daily): 93.2±20.3 % baseline | IL-1ra least square means % baseline±SEM (IL-1ra; day 14, 3 mg once daily): 98.7±20.2 % baseline | IL-1ra least square means % baseline±SEM (IL-1ra; day 14, 10 mg once daily): 98.0±20.8 % baseline
